{
  "source": "paper PMC7838546",
  "about": "“A Thermostable, Modified Cathelicidin-Derived Peptide With Enhanced Membrane-Active Activity Against Salmonella enterica serovar Typhimurium” (Frontiers in Microbiology, 2021)",
  "key": {"[1]": {"test_system": "S. enterica serovar Typhimurium ATCC 13311", "assay_type": "cell-based, Salmonella enterica serovar Typhimurium", "protocol": "(§1) A modified version of the National Committee for Clinical Laboratory Standards (NCCLS) broth microdilution method ([Steinberg et al., 1997]) was used to determine the minimum inhibitory concentrations (MICs) of peptide and compared to that of nisin. Fifty microliters of two-fold serial dilutions of each peptide [0.98–250 μg/ml in 0.01% (v/v) acetic acid and 0.2% (w/v) bovine serum albumin (BSA, Sigma-Aldrich, MO, United States)], were incubated with 50 μl of bacterial suspensions (approximately 10^7 CFU/ml) at 37°C for 24 h in a shaking incubator. MICs were taken as the lowest concentration of peptide at which growth was inhibited as observed by visual inspection. Bacterial cultures without peptides and uncultured broth were used as positive and negative controls, respectively. Minimal bactericidal concentrations (MBCs) were determined using a colony count assay ([Clinical Laboratory Standards Institute [CLSI], 2015]). Fifty microliters of samples from each non-turbid well in the MIC determination experiment was plated on Mueller Hinton Agar (MHA) and colonies were observed after overnight incubation at 37°C. MBCs were designated as the least concentration showing no colony growth on the plate. All of experiments were performed in triplicate.\nThe stability of P7 was tested by determining its antibacterial activity after exposure to different environmental conditions (high salt concentration, different ranges of pH, proteolytic enzymes and high temperatures) as previously described ([Shwaiki et al., 2020]). To test the effect of salts on the antibacterial activity of P7, 10^7 CFU/ml of S. enterica serovar Typhimurium ATCC 13311 was exposed to two-fold serially diluted concentrations (0.98–250 μg/ml) of P7 in the presence of different salts including NaCl (150 mM), KCl (4.5 mM), MgCl2 (1 mM), NH4Cl (6 μM), ZnCl2 (8 μM), FeCl3 (4 μM), and CaCl2 ([…]) ([Xu et al., 2014]). To determine pH stability, the pH of the peptide’s solution was adjusted to 3, 5, 7, 9, and 11 using 1 M NaOH or 1 M acetic acid (CH3COOH). P7 were incubated in the different pH conditions for 1 h, then transferred to inoculated MHB for antibacterial testing ([Chen et al., 2020]), There was no change of the pH following the addition of peptide. To determine the sensitivity of peptide to proteolytic enzymes, the residual activity of P7 was measured after incubation the peptide with 1 mg/ml (final concentration) of proteolytic enzymes (pepsin or trypsin) at 37°C for 1 h and heat denaturation at 80°C for 1 h. To study thermostability, peptides were pre-incubated without bacteria at various temperatures (40, 60, 80, and 100°C) for 1 h and left to cool for 30 min before testing. After these treatments, the antibacterial assays were carried out and MICs determined as described in section “Antibacterial activity assay.”"}, "[2]": {"test_system": "L929 mouse fibroblast cells", "experiment": "Cytotoxicity assay (MTT)", "assay_type": "cell-based", "settings": "24 h, up to 125 μg/ml", "protocol": "The toxicity of P7 peptide on L929 mouse fibroblast cells was assessed by a dye reduction assay using 3-(4,5 dimethylthiazol-2-yl)-2,5-diphenyltetrazolium bromide (MTT). Briefly, 3 × 10^4 L929 cells in RPMI 1640 [supplemented with 10% (v/v) fetal bovine serum, 0.2% (w/v) sodium bicarbonate, 2 mM L-glutamine, 100 U/ml penicillin and […] streptomycin] were seeded into each well of 96-well plates and then incubated in a humidified atmosphere with 5% CO2 at 37°C for 24 h. After the incubation period, the peptide was added to obtain final concentrations of 0.98–250 μg/ml; plates were incubated at 37°C under 5% CO2 for 24 h. RPMI 1640 medium with and without cells were used as positive and negative controls, respectively. After incubation, a final concentration of 0.5 mg/ml MTT (Sigma-Aldrich, MO, United States) was added and incubated at 37°C under 5% CO2 for 4 h. Then, the supernatants were removed from each well and 150 μl of dimethyl sulfoxide (DMSO) was added and mixed thoroughly to solubilize the formazan crystals. Subsequently, absorbance was measured at 570 nm using a microplate reader. The cell viability (%) was calculated according to the formula:\n%Cellviability=ODTreated-ODBlank/ODUntreated-ODBlank×100"}, "[3]": {"test_system": "S. enterica serovar Typhimurium ATCC 13311", "assay_type": "cell-based, Salmonella enterica serovar Typhimurium", "protocol": "In order to induce bacterial resistance to P7, S. enterica serovar Typhimurium ATCC 13311 were cultured for 10 serial passages in MHB in the presence of P7 in a series of concentrations ranging from 0.98 to 250 μg/ml ([Veldhuizen et al., 2013]). In each passage, 50 μl of bacterial samples at sublethal concentrations (the highest peptide concentration displaying 80% growth compared with growth in MHB) were used to determine MIC values by a broth microdilution assay.", "remark": "listed apart in the source"}, "[4]": {"test_system": "S. enterica serovar Typhimurium H1-041 (clinical isolate)", "experiment": "MIC/MBC, broth microdilution and colony count", "assay_type": "cell-based, Salmonella enterica serovar Typhimurium", "settings": "H1-041, stool, resistant Amp, Ctx, C, T, SxT, intermediate Amc, Cp, NA, broth microdilution, 37°C, 24 h", "protocol": "Salmonella enterica serovar Typhimurium ATCC 13311, 24 drug-resistant foodborne and eleven drug-resistant human borne S. enterica serovar Typhimurium and 4,5,12:i:- isolates (Table 1) were used as test microorganisms. They were previously isolated for molecular characterization in 2014 and kindly provided by Dr. Soraya Chaturongakul (Mahidol University, Thailand) ([Huoy et al., 2014]). All bacteria were cultured in Tryptic Soy Broth (TSB) and incubated at 37°C for 18 h. Mueller Hinton Broth (MHB) was then used to wash and rinse the bacteria. The bacterial suspensions were then diluted to obtain concentrations of 10^7 CFU/ml for inoculations.\nas §1"}, "[5]": {"settings": "peptide pre-incubated at 40°C for 1 h, cooled 30 min"}},
  "note": "Read-outs that look alike come from different tables or passages of the source. Ends that are not written are not given here.",
  "data": [
    {"substance": "KIAKRIWKILRR-NH2 [P7]", "values": [
      {"measurement": "MIC", "setting": "[1]; ATCC 13311, 1 h", "result": 7.81, "unit": "µg/mL"},
      {"measurement": "MBC", "setting": "[1]; ATCC 13311, 1 h, pH 3", "result": 15.63, "unit": "µg/mL"},
      {"measurement": "MIC", "setting": "[1]; ATCC 13311, 1 h, pH 3", "result": 7.81, "unit": "µg/mL"},
      {"measurement": "MBC", "setting": "[1]; ATCC 13311, 1 h, pH 5", "result": 7.81, "unit": "µg/mL"},
      {"measurement": "MIC", "setting": "[1]; ATCC 13311, 1 h, pH 5", "result": 7.81, "unit": "µg/mL"},
      {"measurement": "MBC", "setting": "[1]; ATCC 13311, 1 h, pH 7", "result": 7.81, "unit": "µg/mL"},
      {"measurement": "MIC", "setting": "[1]; ATCC 13311, 1 h, pH 7", "result": 7.81, "unit": "µg/mL"},
      {"measurement": "MBC", "setting": "[1]; ATCC 13311, 1 h, pH 9", "result": 7.81, "unit": "µg/mL"},
      {"measurement": "MIC", "setting": "[1]; ATCC 13311, 1 h, pH 9", "result": 7.81, "unit": "µg/mL"},
      {"measurement": "MBC", "setting": "[1]; ATCC 13311, 1 h, pH 11", "result": 15.63, "unit": "µg/mL"},
      {"measurement": "MIC", "setting": "[1]; ATCC 13311, 1 h, pH 11", "result": 7.81, "unit": "µg/mL"},
      {"measurement": "MIC", "setting": "[1]; ATCC 13311, 24 h", "result": 7.81, "unit": "µg/mL"},
      {"measurement": "MBC", "setting": "[1]; Control (no salt)", "result": 3.91, "unit": "µg/mL"},
      {"measurement": "MIC", "setting": "[1]; Control (no salt)", "result": 3.91, "unit": "µg/mL"},
      {"measurement": "MIC", "setting": "[1]; MgCl2 (1 mM)", "result": 31.25, "unit": "µg/mL"},
      {"measurement": "MIC", "setting": "[1]; NaCl (150 mM)", "result": 31.25, "unit": "µg/mL"},
      {"measurement": "MIC", "setting": "[1]; after pepsin 1 mg/ml, 37°C, 1 h, then heat denaturation 80°C", "result": 31.25, "unit": "µg/mL"},
      {"measurement": "MIC", "setting": "[1]; after trypsin 1 mg/ml, 37°C, 1 h, then heat denaturation 80°C", "result": 31.25, "unit": "µg/mL"},
      {"measurement": "MBC", "setting": "[1]; [5]", "result": 3.91, "unit": "µg/mL"},
      {"measurement": "MIC", "setting": "[1]; [5]", "result": 3.91, "unit": "µg/mL"},
      {"measurement": "MIC", "setting": "[1]; peptide pre-incubated at 60°C for 1 h, cooled 30 min", "result": 3.91, "unit": "µg/mL"},
      {"measurement": "Cytotoxicity on L929 cells", "setting": "[2]", "result": "no cytotoxicity"},
      {"measurement": "MIC", "setting": "[3]; serial passage 1", "result": 3.91, "unit": "µg/mL"},
      {"measurement": "MIC", "setting": "[3]; serial passage 2", "result": 3.91, "unit": "µg/mL"},
      {"measurement": "MIC", "setting": "[3]; serial passage 3", "result": 3.91, "unit": "µg/mL"},
      {"measurement": "MIC", "setting": "[3]; serial passage 4", "result": 3.91, "unit": "µg/mL"},
      {"measurement": "MIC", "setting": "[3]; serial passage 5", "result": 3.91, "unit": "µg/mL"},
      {"measurement": "MIC", "setting": "[3]; serial passage 6", "result": 3.91, "unit": "µg/mL"},
      {"measurement": "MIC", "setting": "[3]; serial passage 7", "result": 3.91, "unit": "µg/mL"},
      {"measurement": "MIC", "setting": "[3]; serial passage 8", "result": 3.91, "unit": "µg/mL"},
      {"measurement": "MIC", "setting": "[3]; serial passage 9", "result": 3.91, "unit": "µg/mL"},
      {"measurement": "MIC", "setting": "[3]; serial passage 10", "result": 3.91, "unit": "µg/mL"},
      {"measurement": "MIC", "setting": "[3]; through all bacterial passages (10 serial passages)", "result": 3.91, "unit": "µg/mL"}
    ]},
    {"substance": "Nisin: authorized food preservative peptide, binds lipid II and forms membrane pores (ITSISLCTPGCKTGALMGCNMKTATCHCSIHVSK; cysteine pairing not given here; also: lantibiotic nisin-A; UniProt P13068 24-57, looked up)", "values": [
      {"measurement": "MIC", "setting": "[4]", "result": ">1000", "unit": "µg/mL"}
    ]}
  ]
}
